The text below walks through data of ChEMBL document CHEMBL4052690, “2-Chlorophenyl-substituted benzofuro[3,2-b]pyridines with enhanced topoisomerase inhibitory activity: The role of the chlorine substituent” (Bioorg Med Chem Lett, 2017).

The species entered for one experiment is Homo sapiens. The experiment can be described thus: Inhibition of human recombinant DNA topoisomerase 2 assessed as reduction in enzyme-mediated relaxation of supercoiled pBR322 plasmid DNA at 20 uM in presence of 0.1% BSA by ethidium bromide staining based gel electrophoresis and UV spectroscopy.
Settings: not given
What is called inhibition is the relative decrease from the control value, in per cent. On to `Clc1ccc(-c2cc(-c3ccccc3Cl)nc3c2oc2ccccc23)o1`, for which the inhibition was determined as 29.5%.

As for `Clc1ccc(-c2cc(-c3ccoc3)c3oc4ccccc4c3n2)cc1`, the inhibition was 82.1%.

Regarding `COc1cc([C@@H]2c3cc4c(cc3[C@@H](O[C@@H]3O[C@@H]5CO[C@@H](C)O[C@H]5[C@H](O)[C@H]3O)[C@H]3COC(=O)[C@H]23)OCO4)cc(OC)c1O` [ETOPOSIDE], the inhibition fell in the range of 31.5 to 36.8%.

For `Clc1ccccc1-c1cc(-c2ccccc2)c2oc3ccccc3c2n1`, the inhibition was found to be 6.9%.

`Clc1ccc(-c2cc(-c3ccco3)c3oc4ccccc4c3n2)cc1`: the inhibition was found to be 80.9%.

Turning to `Clc1ccc(-c2cc(-c3ccc(Cl)o3)c3oc4ccccc4c3n2)cc1`, the inhibition amounted to 73.7%.

For the compound `Clc1cccc(-c2cc(-c3cccs3)c3oc4ccccc4c3n2)c1`, the inhibition worked out at 17.3%.

In the case of `Clc1cccc(-c2cc(-c3ccoc3)c3oc4ccccc4c3n2)c1`, the inhibition amounted to 50.4%.

With `Clc1cccc(-c2cc(-c3ccccc3)c3oc4ccccc4c3n2)c1`, the inhibition was found to be 14.8%.

For another experiment, the system named is T47D. The experiment can be described thus: Antiproliferative activity against human T47D cells after 72 hrs by CCK8 assay. The format is functional, cell-based.
Settings: not given
As usually defined, the IC50 is the concentration at which inhibition is half-maximal. A high value points to a need for much substance. Compound `Clc1ccc(-c2cc(-c3ccccc3Cl)nc3c2oc2ccccc23)o1` came in with an IC50 of over 50 µM.

Turning to `Clc1ccc(-c2cc(-c3ccoc3)c3oc4ccccc4c3n2)cc1`, the 50% inhibitory concentration (IC50) turned out to be 18.5 µM.

With `Clc1ccccc1-c1cc(-c2ccccc2)c2oc3ccccc3c2n1`, the 50% inhibitory concentration (IC50) is 19.5 µM.

`Clc1ccc(-c2cc(-c3ccco3)c3oc4ccccc4c3n2)cc1` registered an IC50 of 13.2 µM.

In the case of `Clc1ccc(-c2cc(-c3ccc(Cl)o3)c3oc4ccccc4c3n2)cc1`, the IC50 is 11.4 µM.

`Clc1cccc(-c2cc(-c3cccs3)c3oc4ccccc4c3n2)c1` yielded an IC50 of 17.2 µM.

As for `Clc1cccc(-c2cc(-c3ccoc3)c3oc4ccccc4c3n2)c1`, the concentration for half-maximal inhibition (IC50) stood at 18.1 µM.

In turn, `Clc1cccc(-c2cc(-c3ccccc3)c3oc4ccccc4c3n2)c1` had a half-maximal inhibitory concentration (IC50) of 33.6 µM.

The target in another experiment is T1, DNA topoisomerase 1 (Homo sapiens) (UniProt P11387).
T1 sequence (whole entry): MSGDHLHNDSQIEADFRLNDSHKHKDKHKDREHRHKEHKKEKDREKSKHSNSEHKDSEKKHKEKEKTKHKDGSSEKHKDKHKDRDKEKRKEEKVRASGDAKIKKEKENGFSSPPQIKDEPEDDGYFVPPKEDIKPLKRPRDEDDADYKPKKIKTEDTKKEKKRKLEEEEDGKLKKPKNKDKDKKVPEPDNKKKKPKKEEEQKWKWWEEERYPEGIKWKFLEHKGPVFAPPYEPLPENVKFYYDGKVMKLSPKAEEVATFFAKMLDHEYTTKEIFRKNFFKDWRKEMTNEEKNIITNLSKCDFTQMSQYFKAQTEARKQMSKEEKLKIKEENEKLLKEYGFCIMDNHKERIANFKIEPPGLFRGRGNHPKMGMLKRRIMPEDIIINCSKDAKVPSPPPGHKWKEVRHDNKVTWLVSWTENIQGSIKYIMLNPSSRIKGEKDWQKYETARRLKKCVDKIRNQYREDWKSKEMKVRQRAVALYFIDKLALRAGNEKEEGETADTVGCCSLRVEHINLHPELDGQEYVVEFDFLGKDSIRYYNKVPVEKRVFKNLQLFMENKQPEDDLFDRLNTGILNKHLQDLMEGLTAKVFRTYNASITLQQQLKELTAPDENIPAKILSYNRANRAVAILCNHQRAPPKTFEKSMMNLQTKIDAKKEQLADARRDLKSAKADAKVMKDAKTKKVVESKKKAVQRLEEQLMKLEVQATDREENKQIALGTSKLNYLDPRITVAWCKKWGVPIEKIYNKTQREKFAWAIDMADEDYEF
Nature of the experiment: Inhibition of human recombinant DNA topoisomerase 1 assessed as reduction in enzyme-mediated relaxation of supercoiled pBR322 plasmid DNA at 100 uM in presence of 0.1% BSA by ethidium bromide staining based gel electrophoresis and UV spectroscopy relative to camptothecin.
Settings: not given
Turning to `Clc1ccc(-c2cc(-c3ccccc3Cl)nc3c2oc2ccccc23)o1`, the fold change (FC) is 1.15.

Consider `Clc1ccc(-c2cc(-c3ccoc3)c3oc4ccccc4c3n2)cc1`, for which the fold change (FC) came out at 0.95.

For `Clc1ccccc1-c1cc(-c2ccccc2)c2oc3ccccc3c2n1`, the fold change (FC) worked out at 0.38.

Turning to `Clc1ccc(-c2cc(-c3ccco3)c3oc4ccccc4c3n2)cc1`, the fold change (FC) came out at 1.15.

Turning to `Clc1ccc(-c2cc(-c3ccc(Cl)o3)c3oc4ccccc4c3n2)cc1`, the fold change (FC) amounted to 0.81.

As for `Clc1cccc(-c2cc(-c3cccs3)c3oc4ccccc4c3n2)c1`, the fold change (FC) was 0.98.

In the case of `Clc1cccc(-c2cc(-c3ccoc3)c3oc4ccccc4c3n2)c1`, the fold change (FC) was 0.97.

On to `Clc1cccc(-c2cc(-c3ccccc3)c3oc4ccccc4c3n2)c1`, for which the fold change (FC) is 0.93.

The species entered for another experiment is Homo sapiens. Nature of the experiment: Inhibition of human recombinant DNA topoisomerase 2 assessed as reduction in enzyme-mediated relaxation of supercoiled pBR322 plasmid DNA at 100 uM in presence of 0.1% BSA by ethidium bromide staining based gel electrophoresis and UV spectroscopy.
Settings: not given
Take `Clc1ccc(-c2cc(-c3ccccc3Cl)nc3c2oc2ccccc23)o1`: the inhibition worked out at 86%.

In the case of `Clc1ccc(-c2cc(-c3ccoc3)c3oc4ccccc4c3n2)cc1`, the inhibition turned out to be 88.7%.

Consider `COc1cc([C@@H]2c3cc4c(cc3[C@@H](O[C@@H]3O[C@@H]5CO[C@@H](C)O[C@H]5[C@H](O)[C@H]3O)[C@H]3COC(=O)[C@H]23)OCO4)cc(OC)c1O` [ETOPOSIDE], for which the inhibition lay in the range of 52.3 to 66%.

In the case of `Clc1ccccc1-c1cc(-c2ccccc2)c2oc3ccccc3c2n1`, the inhibition was 58.2%.

With `Clc1ccc(-c2cc(-c3ccco3)c3oc4ccccc4c3n2)cc1`, the inhibition came to 96.2%.

Turning to `Clc1ccc(-c2cc(-c3ccc(Cl)o3)c3oc4ccccc4c3n2)cc1`, the inhibition is 100%.

`Clc1cccc(-c2cc(-c3cccs3)c3oc4ccccc4c3n2)c1`: the inhibition was 85.3%.

For the compound `Clc1cccc(-c2cc(-c3ccoc3)c3oc4ccccc4c3n2)c1`, the inhibition amounted to 86.1%.

With `Clc1cccc(-c2cc(-c3ccccc3)c3oc4ccccc4c3n2)c1`, the inhibition was determined as 83%.

In the next experiment the test system is HeLa. Nature of the experiment: Antiproliferative activity against human HeLa cells after 72 hrs by CCK8 assay. The format is functional, cell-based.
Settings: not given
`Clc1ccc(-c2cc(-c3ccccc3Cl)nc3c2oc2ccccc23)o1` showed a concentration for half-maximal inhibition (IC50) of over 50 µM.

Consider `Clc1ccc(-c2cc(-c3ccoc3)c3oc4ccccc4c3n2)cc1`, for which the half-maximal inhibitory concentration (IC50) amounted to 16.6 µM.

In turn, `COc1cc([C@@H]2c3cc4c(cc3[C@@H](O[C@@H]3O[C@@H]5CO[C@@H](C)O[C@H]5[C@H](O)[C@H]3O)[C@H]3COC(=O)[C@H]23)OCO4)cc(OC)c1O` [ETOPOSIDE] came in with a half-maximal inhibitory concentration (IC50) of 4.12 µM.

In the case of `Clc1ccccc1-c1cc(-c2ccccc2)c2oc3ccccc3c2n1`, inhibition was half-maximal at 21.7 µM (IC50).

In turn, `Clc1ccc(-c2cc(-c3ccco3)c3oc4ccccc4c3n2)cc1` came in with an IC50 of 36.5 µM.

`Clc1ccc(-c2cc(-c3ccc(Cl)o3)c3oc4ccccc4c3n2)cc1` displayed a half-inhibitory concentration (IC50) of 16.4 µM.

In turn, `Clc1cccc(-c2cc(-c3cccs3)c3oc4ccccc4c3n2)c1` had an IC50 of over 50 µM.

The compound `Clc1cccc(-c2cc(-c3ccoc3)c3oc4ccccc4c3n2)c1` yielded an IC50 of 41.1 µM.

In the case of `Clc1cccc(-c2cc(-c3ccccc3)c3oc4ccccc4c3n2)c1`, inhibition was half-maximal at 37.2 µM (IC50).

The subject of another experiment is HCT-15. Nature of the experiment: Antiproliferative activity against human HCT15 cells after 72 hrs by CCK8 assay. The format is functional, cell-based. The note with it: HCT-15, 72 h. (Tetrazolium dyes change colour on reduction, which living cells bring about.)
For `Clc1ccc(-c2cc(-c3ccccc3Cl)nc3c2oc2ccccc23)o1`, the 50% inhibitory concentration (IC50) was over 50 µM.

The compound `Clc1ccc(-c2cc(-c3ccoc3)c3oc4ccccc4c3n2)cc1` returned a half-maximal inhibitory concentration (IC50) of 38.6 µM.

Compound `COc1cc([C@@H]2c3cc4c(cc3[C@@H](O[C@@H]3O[C@@H]5CO[C@@H](C)O[C@H]5[C@H](O)[C@H]3O)[C@H]3COC(=O)[C@H]23)OCO4)cc(OC)c1O` [ETOPOSIDE] registered an IC50 of 9.27 µM.

The compound `Clc1ccccc1-c1cc(-c2ccccc2)c2oc3ccccc3c2n1` yielded an IC50 of 19.4 µM.

Consider `Clc1ccc(-c2cc(-c3ccco3)c3oc4ccccc4c3n2)cc1`, for which the IC50 is over 50 µM.

Regarding `Clc1ccc(-c2cc(-c3ccc(Cl)o3)c3oc4ccccc4c3n2)cc1`, the IC50 is over 50 µM.

With `Clc1cccc(-c2cc(-c3cccs3)c3oc4ccccc4c3n2)c1`, the IC50 stood at 19.3 µM.

Turning to `Clc1cccc(-c2cc(-c3ccoc3)c3oc4ccccc4c3n2)c1`, the IC50 is 17.6 µM.

For the compound `Clc1cccc(-c2cc(-c3ccccc3)c3oc4ccccc4c3n2)c1`, the IC50 is over 50 µM.

The species named for a further experiment is Homo sapiens. The experiment can be described thus: Inhibition of human recombinant DNA topoisomerase 2 assessed as reduction in enzyme-mediated relaxation of supercoiled pBR322 plasmid DNA at 100 uM in presence of 0.1% BSA by ethidium bromide staining based gel electrophoresis and UV spectroscopy relative to etoposide.
Settings: not given
For the compound `Clc1ccc(-c2cc(-c3ccccc3Cl)nc3c2oc2ccccc23)o1`, the fold change (FC) was found to be 1.64.

Turning to `Clc1ccc(-c2cc(-c3ccoc3)c3oc4ccccc4c3n2)cc1`, the fold change (FC) was 1.7.

Turning to `Clc1ccccc1-c1cc(-c2ccccc2)c2oc3ccccc3c2n1`, the fold change (FC) worked out at 0.88.

On to `Clc1ccc(-c2cc(-c3ccco3)c3oc4ccccc4c3n2)cc1`, for which the fold change (FC) was 1.46.

In the case of `Clc1ccc(-c2cc(-c3ccc(Cl)o3)c3oc4ccccc4c3n2)cc1`, the fold change (FC) worked out at 1.91.

As to `Clc1cccc(-c2cc(-c3cccs3)c3oc4ccccc4c3n2)c1`, the fold change (FC) amounted to 1.29.

Consider `Clc1cccc(-c2cc(-c3ccoc3)c3oc4ccccc4c3n2)c1`, for which the fold change (FC) amounted to 1.65.

Turning to `Clc1cccc(-c2cc(-c3ccccc3)c3oc4ccccc4c3n2)c1`, the fold change (FC) worked out at 1.26.

Another experiment is filed under the species Homo sapiens. Nature of the experiment: Inhibition of human recombinant DNA topoisomerase 2 assessed as reduction in enzyme-mediated relaxation of supercoiled pBR322 plasmid DNA at 20 uM in presence of 0.1% BSA by ethidium bromide staining based gel electrophoresis and UV spectroscopy relative to etoposide.
Settings: not given
As to `Clc1ccc(-c2cc(-c3ccccc3Cl)nc3c2oc2ccccc23)o1`, the fold change (FC) stood at 0.94.

In the case of `Clc1ccc(-c2cc(-c3ccoc3)c3oc4ccccc4c3n2)cc1`, the fold change (FC) was 2.61.

For the compound `Clc1ccccc1-c1cc(-c2ccccc2)c2oc3ccccc3c2n1`, the fold change (FC) was determined as 0.19.

Regarding `Clc1ccc(-c2cc(-c3ccco3)c3oc4ccccc4c3n2)cc1`, the fold change (FC) amounted to 2.2.

With `Clc1ccc(-c2cc(-c3ccc(Cl)o3)c3oc4ccccc4c3n2)cc1`, the fold change (FC) worked out at 2.34.

As for `Clc1cccc(-c2cc(-c3cccs3)c3oc4ccccc4c3n2)c1`, the fold change (FC) is 0.47.

With `Clc1cccc(-c2cc(-c3ccoc3)c3oc4ccccc4c3n2)c1`, the fold change (FC) came out at 1.6.

With `Clc1cccc(-c2cc(-c3ccccc3)c3oc4ccccc4c3n2)c1`, the fold change (FC) stood at 0.4.

The next experiment has as its target T1, DNA topoisomerase 1 (Homo sapiens). The experiment can be described thus: Inhibition of human recombinant DNA topoisomerase 1 assessed as reduction in enzyme-mediated relaxation of supercoiled pBR322 plasmid DNA at 100 uM in presence of 0.1% BSA by ethidium bromide staining based gel electrophoresis and UV spectroscopy.
Settings: not given
For `Clc1ccc(-c2cc(-c3ccccc3Cl)nc3c2oc2ccccc23)o1`, the inhibition came to 100%.

Consider `Clc1ccc(-c2cc(-c3ccoc3)c3oc4ccccc4c3n2)cc1`, for which the inhibition turned out to be 86.5%.

In the case of `Clc1ccccc1-c1cc(-c2ccccc2)c2oc3ccccc3c2n1`, the inhibition was determined as 33%.

Turning to `Clc1ccc(-c2cc(-c3ccco3)c3oc4ccccc4c3n2)cc1`, the inhibition came to 100%.

`Clc1ccc(-c2cc(-c3ccc(Cl)o3)c3oc4ccccc4c3n2)cc1`: the inhibition was found to be 98.9%.

In the case of `Clc1cccc(-c2cc(-c3cccs3)c3oc4ccccc4c3n2)c1`, the inhibition amounted to 85.1%.

On to `Clc1cccc(-c2cc(-c3ccoc3)c3oc4ccccc4c3n2)c1`, for which the inhibition was 84.3%.

Turning to `Clc1cccc(-c2cc(-c3ccccc3)c3oc4ccccc4c3n2)c1`, the inhibition worked out at 80.6%.
